Where “and” joins values, the source holds several entries; their conditions need not be identical. Equal entries are not always repeated. Where two headings read alike, the source gives them in different places.
Experiments:
FGR = FGR (Homo sapiens, UniProt P09769); experiment: Kinase profile screen: FGR; type: biochemical; details: 50 nM
Description: (§1) Experimental Example 2: Study on the Selectivity of the Kinase Profile of the Compound Due to compound's potent inhibitory activity against AXL, we selected one of the compounds, DC621044, to screen 369 kinase profiles in order to investigate the compound's selectivity to the kinase profile.

LCK = LCK (Homo sapiens, UniProt P06239); experiment: Kinase profile screen: LCK; type: biochemical; details: 50 nM
Chain of LCK (P06239 whole entry, species assumed): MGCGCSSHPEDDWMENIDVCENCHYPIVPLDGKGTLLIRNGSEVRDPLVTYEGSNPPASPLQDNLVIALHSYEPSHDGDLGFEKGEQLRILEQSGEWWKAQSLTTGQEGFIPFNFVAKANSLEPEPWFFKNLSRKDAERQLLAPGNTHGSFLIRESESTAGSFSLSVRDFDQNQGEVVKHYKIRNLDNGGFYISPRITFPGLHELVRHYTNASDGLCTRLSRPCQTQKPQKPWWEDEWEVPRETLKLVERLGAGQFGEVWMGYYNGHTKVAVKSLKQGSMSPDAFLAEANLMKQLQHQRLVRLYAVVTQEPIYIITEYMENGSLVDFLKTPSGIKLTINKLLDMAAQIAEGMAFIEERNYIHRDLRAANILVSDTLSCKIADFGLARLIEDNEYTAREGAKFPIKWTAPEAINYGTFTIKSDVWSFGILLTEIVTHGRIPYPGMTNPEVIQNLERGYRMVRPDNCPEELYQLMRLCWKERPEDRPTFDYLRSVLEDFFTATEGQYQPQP
Description: as §1

c-Src = c-Src (Homo sapiens, UniProt P12931); experiment: Kinase profile screen: c-Src; type: biochemical; details: 50 nM
Description: as §1

EGFR = EGFR (Homo sapiens, UniProt P00533); experiment: Kinase profile screen: EGFR; type: biochemical; details: 50 nM
Description: as §1

BRK = BRK (Homo sapiens, UniProt Q13882); experiment: Kinase profile screen: BRK; type: biochemical; details: 50 nM
Chain of BRK (Q13882 whole entry, species assumed): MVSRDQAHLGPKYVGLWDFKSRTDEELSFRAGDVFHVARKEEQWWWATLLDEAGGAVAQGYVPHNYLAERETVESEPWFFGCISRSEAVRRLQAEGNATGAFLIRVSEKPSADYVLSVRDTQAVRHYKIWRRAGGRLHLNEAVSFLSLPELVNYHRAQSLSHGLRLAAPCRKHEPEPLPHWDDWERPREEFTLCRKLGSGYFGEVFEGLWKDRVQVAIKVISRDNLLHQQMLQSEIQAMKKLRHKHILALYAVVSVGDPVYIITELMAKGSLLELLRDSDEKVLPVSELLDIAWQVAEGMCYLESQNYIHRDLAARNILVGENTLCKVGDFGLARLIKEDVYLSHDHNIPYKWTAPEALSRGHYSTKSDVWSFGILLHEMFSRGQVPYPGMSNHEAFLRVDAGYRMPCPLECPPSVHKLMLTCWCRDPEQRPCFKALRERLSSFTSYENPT
Description: as §1

369 kinases = experiment: Selectivity of the kinase profile (369 kinases); type: biochemical; details: 369 kinases screened
Description: as §1

TRKC = TRKC (Homo sapiens, UniProt Q16288); experiment: Kinase profile screen: TRKC; type: biochemical; details: 50 nM
Description: as §1

IRR/INSRR = IRR/INSRR (Homo sapiens, UniProt P14616); experiment: Kinase profile screen: IRR/INSRR; type: biochemical; details: 50 nM
Chain of IRR/INSRR (P14616 27-1297): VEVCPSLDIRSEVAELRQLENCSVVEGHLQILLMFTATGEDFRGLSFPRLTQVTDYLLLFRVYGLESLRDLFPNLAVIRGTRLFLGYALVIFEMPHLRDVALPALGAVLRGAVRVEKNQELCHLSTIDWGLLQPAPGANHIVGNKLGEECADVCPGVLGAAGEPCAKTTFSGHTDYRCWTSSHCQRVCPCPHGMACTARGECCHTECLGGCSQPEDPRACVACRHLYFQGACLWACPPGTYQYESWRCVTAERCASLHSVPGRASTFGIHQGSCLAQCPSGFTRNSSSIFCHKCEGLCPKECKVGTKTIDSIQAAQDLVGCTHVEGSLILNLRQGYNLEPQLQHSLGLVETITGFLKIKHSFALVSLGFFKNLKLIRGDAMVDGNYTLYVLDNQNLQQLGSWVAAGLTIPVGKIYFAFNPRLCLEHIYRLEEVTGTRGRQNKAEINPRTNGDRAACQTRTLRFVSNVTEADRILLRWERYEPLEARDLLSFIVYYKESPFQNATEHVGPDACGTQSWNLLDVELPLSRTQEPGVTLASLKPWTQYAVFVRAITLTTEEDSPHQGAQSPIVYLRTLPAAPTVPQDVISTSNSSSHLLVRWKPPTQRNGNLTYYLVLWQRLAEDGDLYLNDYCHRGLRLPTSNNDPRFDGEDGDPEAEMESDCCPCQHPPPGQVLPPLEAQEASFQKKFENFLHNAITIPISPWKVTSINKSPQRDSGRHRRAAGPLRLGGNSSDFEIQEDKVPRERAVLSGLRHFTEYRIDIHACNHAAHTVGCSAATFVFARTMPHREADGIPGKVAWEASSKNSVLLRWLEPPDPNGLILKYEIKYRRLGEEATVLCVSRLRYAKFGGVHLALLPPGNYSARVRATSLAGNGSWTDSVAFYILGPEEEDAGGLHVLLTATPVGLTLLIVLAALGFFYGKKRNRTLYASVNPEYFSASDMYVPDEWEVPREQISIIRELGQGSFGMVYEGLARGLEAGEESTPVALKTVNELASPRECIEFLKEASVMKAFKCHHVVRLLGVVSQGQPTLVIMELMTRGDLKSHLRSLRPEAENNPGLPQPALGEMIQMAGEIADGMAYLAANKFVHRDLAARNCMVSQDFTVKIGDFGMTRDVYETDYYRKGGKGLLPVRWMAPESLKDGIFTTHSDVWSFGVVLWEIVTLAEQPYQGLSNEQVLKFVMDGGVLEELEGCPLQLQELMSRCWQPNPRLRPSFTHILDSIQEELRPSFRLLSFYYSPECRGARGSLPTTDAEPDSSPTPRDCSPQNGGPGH
Description: as §1

FRK/PTK5 = FRK/PTK5 (Homo sapiens, UniProt P42685); experiment: Kinase profile screen: FRK/PTK5; type: biochemical; details: 50 nM
Description: as §1

TRKA = TRKA (Homo sapiens, UniProt P04629); experiment: Kinase profile screen: TRKA; type: biochemical; details: 50 nM
Description: as §1

AXL = AXL (Homo sapiens, UniProt P30530); experiment: Kinase profile screen: AXL; type: biochemical; details: 50 nM
Chain of AXL (P30530 26-894): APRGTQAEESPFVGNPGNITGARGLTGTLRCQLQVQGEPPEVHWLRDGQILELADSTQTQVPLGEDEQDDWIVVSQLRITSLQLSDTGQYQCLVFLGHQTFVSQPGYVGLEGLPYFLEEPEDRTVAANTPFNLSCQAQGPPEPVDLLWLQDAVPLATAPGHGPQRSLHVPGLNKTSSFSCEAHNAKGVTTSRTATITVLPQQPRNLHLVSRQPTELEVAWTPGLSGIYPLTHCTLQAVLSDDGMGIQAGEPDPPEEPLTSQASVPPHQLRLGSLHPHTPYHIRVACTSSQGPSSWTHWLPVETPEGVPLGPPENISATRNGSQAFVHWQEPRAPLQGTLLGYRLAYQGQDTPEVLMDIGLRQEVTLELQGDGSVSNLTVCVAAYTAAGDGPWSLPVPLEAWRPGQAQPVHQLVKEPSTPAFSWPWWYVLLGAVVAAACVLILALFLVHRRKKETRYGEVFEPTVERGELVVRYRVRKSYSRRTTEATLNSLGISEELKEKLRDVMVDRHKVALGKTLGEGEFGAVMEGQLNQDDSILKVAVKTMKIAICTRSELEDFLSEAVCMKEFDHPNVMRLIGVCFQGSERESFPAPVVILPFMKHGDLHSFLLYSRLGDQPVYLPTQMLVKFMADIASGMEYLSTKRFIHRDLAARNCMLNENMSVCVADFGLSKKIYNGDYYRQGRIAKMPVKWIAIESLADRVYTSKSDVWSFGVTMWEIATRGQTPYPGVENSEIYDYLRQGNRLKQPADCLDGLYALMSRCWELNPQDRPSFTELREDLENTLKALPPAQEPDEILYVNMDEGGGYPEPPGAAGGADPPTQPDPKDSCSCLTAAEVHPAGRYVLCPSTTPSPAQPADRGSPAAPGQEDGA
Description: as §1

[1] = target: receptor tyrosine kinase c-Met (Homo sapiens, UniProt P08581); experiment: In vitro c-Met kinase inhibitory activity; type: biochemical; details: two values per compound
Chain of receptor tyrosine kinase c-Met (P08581 25-1390): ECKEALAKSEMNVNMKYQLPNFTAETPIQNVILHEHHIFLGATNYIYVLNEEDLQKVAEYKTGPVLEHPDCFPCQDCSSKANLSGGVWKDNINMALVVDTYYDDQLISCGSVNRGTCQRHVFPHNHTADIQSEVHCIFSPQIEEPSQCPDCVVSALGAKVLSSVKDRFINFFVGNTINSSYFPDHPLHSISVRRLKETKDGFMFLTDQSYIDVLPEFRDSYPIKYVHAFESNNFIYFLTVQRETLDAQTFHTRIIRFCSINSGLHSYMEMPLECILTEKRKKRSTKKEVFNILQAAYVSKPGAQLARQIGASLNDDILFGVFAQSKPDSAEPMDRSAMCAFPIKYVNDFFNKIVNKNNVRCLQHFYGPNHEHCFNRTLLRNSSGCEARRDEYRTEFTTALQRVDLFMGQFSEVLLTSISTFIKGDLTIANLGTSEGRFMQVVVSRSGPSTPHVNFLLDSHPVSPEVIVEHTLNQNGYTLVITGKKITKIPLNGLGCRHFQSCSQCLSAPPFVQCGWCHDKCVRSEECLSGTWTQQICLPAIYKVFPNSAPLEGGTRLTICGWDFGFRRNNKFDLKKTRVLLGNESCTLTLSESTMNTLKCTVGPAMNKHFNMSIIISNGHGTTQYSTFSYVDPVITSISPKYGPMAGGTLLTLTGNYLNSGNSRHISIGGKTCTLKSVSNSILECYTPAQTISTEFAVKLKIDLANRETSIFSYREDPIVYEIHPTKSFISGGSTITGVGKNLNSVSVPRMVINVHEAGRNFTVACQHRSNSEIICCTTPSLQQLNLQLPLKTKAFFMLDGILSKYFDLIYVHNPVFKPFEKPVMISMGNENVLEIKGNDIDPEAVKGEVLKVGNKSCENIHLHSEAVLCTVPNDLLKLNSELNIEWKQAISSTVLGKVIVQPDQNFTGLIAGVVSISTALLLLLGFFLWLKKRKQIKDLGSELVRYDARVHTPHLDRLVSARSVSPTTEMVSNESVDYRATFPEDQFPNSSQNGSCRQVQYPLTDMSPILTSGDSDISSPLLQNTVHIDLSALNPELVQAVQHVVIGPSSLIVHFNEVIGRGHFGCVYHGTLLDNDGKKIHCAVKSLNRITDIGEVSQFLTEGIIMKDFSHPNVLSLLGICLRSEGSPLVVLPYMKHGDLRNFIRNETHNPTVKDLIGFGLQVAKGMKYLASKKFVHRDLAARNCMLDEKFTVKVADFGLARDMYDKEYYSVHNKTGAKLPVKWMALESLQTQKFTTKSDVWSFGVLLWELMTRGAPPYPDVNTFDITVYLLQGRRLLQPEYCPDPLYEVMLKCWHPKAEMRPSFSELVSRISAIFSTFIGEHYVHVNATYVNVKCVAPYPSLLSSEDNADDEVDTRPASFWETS
Description: Experimental Example 3: Study of In Vitro c-Met Kinase Inhibitory Activity
Since the screening results of 369 kinase profiles of compound DC621044 has shown that the compound has a certain inhibitory activity on c-Met. We further screened some compounds for their inhibitory activity on c-Met kinase.

BaF3/TEL-AXL cells = experiment: Proliferation of BaF3/TEL-AXL cells; type: cell-based
Description: Experimental Example 4: Effect of the Compound on the Proliferation Effect of BaF3/TEL-AXL Cells
Based on the above-mentioned enzyme activity research results, we further explored the effect of the compound on cell proliferation mediated by receptor tyrosine kinase AXL.

MER = MER (Homo sapiens, UniProt Q12866); experiment: Kinase profile screen: MER; type: biochemical; details: 50 nM
Description: as §1

MLK2/MAP3K10 = MLK2/MAP3K10 (Homo sapiens, UniProt Q02779); experiment: Kinase profile screen: MLK2/MAP3K10; type: biochemical; details: 50 nM
Description: as §1

[2] = target: T1, receptor tyrosine kinase AXL (Homo sapiens, UniProt P30530); experiment: Enzyme activity of receptor tyrosine kinase AXL (ELISA); type: biochemical
T1 construct: 50 μL of AXL kinase domain recombinant protein diluted in reaction buffer was added to start the reaction; made in house; host or cells: insect cells (baculovirus expression system)
T1 sequence (P30530 536-807 limits assumed): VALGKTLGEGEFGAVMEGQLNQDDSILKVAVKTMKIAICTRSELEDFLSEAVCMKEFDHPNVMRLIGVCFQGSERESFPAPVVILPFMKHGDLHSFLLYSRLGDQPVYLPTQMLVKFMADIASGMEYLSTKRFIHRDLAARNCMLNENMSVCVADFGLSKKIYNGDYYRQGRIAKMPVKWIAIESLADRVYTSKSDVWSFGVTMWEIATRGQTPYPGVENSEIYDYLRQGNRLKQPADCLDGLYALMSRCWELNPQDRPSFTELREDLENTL
Procedure: Detection method: Enzyme-linked immunosorbent assay (ELISA)
Tested receptor tyrosine kinase: AXL
The full-wavelength microplate reader for experiment reading was a product of Molecular Device, model: SpectraMax 190; the experiment water was distilled water produced by Sinopharm Group.
Compound preparation: The compounds were centrifuged at 12,000 g for 5 min, and DMSO was added to prepare a 10^−2M stock solution, vortexed evenly and sonicated for 10 min for use, and stored at −40° C. During the test, the compound was diluted from the stock solution to 100 times the tested concentration with DMSO (the DMSO concentration in the system was 1%).
1. […] Discard the liquid from the well. The plate was washed and washed three times with T-PBS (0.1% Tween-20 in potassium-free PBS, 200 μL/well) for 5 minutes each time.
2. 49 μL of ATP solution diluted with reaction buffer (50 mM HEPES pH 7.4, 50 mM MgCl2, 0.5 mM MnCl2, 0.2 mM Na3VO4, 1 mM DTT) was added to each well, and […] of the tested compound was added to each well, and then 50 μL of AXL kinase domain recombinant protein diluted in reaction buffer was added to start the reaction. Two control wells without ATP were added in each experiment. (100 rpm) Reacted in 37° C. shaker for 1 hour. Discard the liquid from the well, and the plate was washed with T-PBS for three times.
3. […] Discard the liquid from the well, and the plate was washed with T-PBS for three times.
4. The horseradish peroxidase-labeled goat anti-mouse second antibody dilution (antibody diluted 1:2000 with BSA 5 mg/mL in T-PBS), 100 μL/well, and reacted in 37° C. shaker for 0.5 hours. Discard the liquid from the well, and the plate was washed with T-PBS for three times.
6. The reaction was quenched with 50 μL/well 2M […], and read at 490 nm using a tunable microplate reader VERSAmax.
The IC50 values were obtained by four-parameter regression analysis using the software supplied with the microplate reader.

FYN = FYN (Homo sapiens, UniProt P06241); experiment: Kinase profile screen: FYN; type: biochemical; details: 50 nM
Description: as §1

Chain of FGR (P09769 whole entry, species assumed): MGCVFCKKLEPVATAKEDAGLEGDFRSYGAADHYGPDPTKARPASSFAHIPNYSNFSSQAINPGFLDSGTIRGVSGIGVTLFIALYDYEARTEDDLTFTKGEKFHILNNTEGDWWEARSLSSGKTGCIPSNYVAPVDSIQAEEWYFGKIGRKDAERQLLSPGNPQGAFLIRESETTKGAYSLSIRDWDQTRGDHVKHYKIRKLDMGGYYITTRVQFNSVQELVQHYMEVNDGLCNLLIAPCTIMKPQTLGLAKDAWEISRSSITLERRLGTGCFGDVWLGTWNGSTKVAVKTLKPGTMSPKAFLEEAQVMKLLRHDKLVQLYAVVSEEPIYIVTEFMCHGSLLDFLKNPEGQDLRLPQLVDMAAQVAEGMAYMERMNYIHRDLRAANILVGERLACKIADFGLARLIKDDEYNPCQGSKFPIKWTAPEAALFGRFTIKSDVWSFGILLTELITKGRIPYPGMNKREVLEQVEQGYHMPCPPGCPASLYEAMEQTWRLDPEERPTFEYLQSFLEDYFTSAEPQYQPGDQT

`COCCOc1cc2ncnc(Oc3ccc(NC(=O)c4c5n(n(-c6ccc(F)cc6)c4=O)CCCC5)cc3F)c2cc1OCCOC` [DC621044, N-(4-((6,7-bis(2-methoxyethoxy)quinazolin-4-yl)oxy)-3-fluorophenyl)-1-(4-fluorophenyl)-2-oxo-1,2,4,5,6,7-hexahydropyrazolo[1,5-a]pyridine-3-formamide] showed an inhibition at 0.05 µM (FGR; the first time) of 41.2%, an inhibition at 0.05 µM (FGR; the second time) of 41.2% and an inhibition at 0.05 µM (LCK; the first time) of 52.8%. It also gave an inhibition at 0.05 µM (LCK; the second time) of 53.1%, an inhibition at 0.05 µM (c-Src; the first time) of 20% and an inhibition at 0.05 µM (c-Src; the second time) of 21%. It also gave an inhibition at 0.05 µM (EGFR; the first time) of 17.9%, an inhibition at 0.05 µM (EGFR; the second time) of 18.6% and an inhibition at 0.05 µM (BRK; the first time) of 18.9%. For the same molecule, the inhibition at 0.05 µM (BRK; the second time) was 19.4%, the “kinase profile selectivity (in words)” value (369 kinases) was “good selectivity for AXL kinase” and the inhibition at 0.05 µM (TRKC; the first time) was 23.8%. It also gave an inhibition at 0.05 µM (TRKC; the second time) of 24.1%, an inhibition at 0.05 µM (IRR/INSRR; the first time) of 25.8% and an inhibition at 0.05 µM (IRR/INSRR; the second time) of 28.3%. The inhibition at 0.05 µM (FRK/PTK5; the first time) was 17.1%, the inhibition at 0.05 µM (FRK/PTK5; the second time) was 17.7% and the inhibition at 0.05 µM (TRKA; the first time) was 59.2%. For the same molecule, the inhibition at 0.05 µM (TRKA; the second time) was 60.3%, the inhibition at 0.05 µM (AXL; the first time) was 94.6% and the inhibition at 0.05 µM (AXL; the second time) was 95.2%. For the same molecule, the “c-Met Inhibitory rate (%)” value ([1]; 1 nM, 0.001 µM) was 30.6% and 52.3%, the “c-Met Inhibitory rate (%)” value ([1]; 10 nM, 0.01 µM) was 75.1% and the inhibition at 0.01 µM ([1]; 10 nM, read-out: c-Met Inhibitory rate (%)) was 69.4%. For the same molecule, the “c-Met Inhibitory rate (%)” value ([1]; 100 nM, 0.1 µM) was 100%, the inhibition at 0.1 µM ([1]; 100 nM, read-out: c-Met Inhibitory rate (%)) was 97.1% and the “BaF3/TEL-AXL proliferation Inhibitory rate (%)” value (BaF3/TEL-AXL cells; 1 nM, two values per compound, 0.001 µM) was 64.2%. The “BaF3/TEL-AXL proliferation Inhibitory rate (%)” value (BaF3/TEL-AXL cells; 10 nM, two values per compound, 0.01 µM) was 75.9%, the “BaF3/TEL-AXL proliferation Inhibitory rate (%)” value (BaF3/TEL-AXL cells; 100 nM, two values per compound, 0.1 µM) was 88.2% and the inhibition at 0.001 µM (BaF3/TEL-AXL cells; BaF3/TEL-AXL, 1 nM, two values per compound, read-out: BaF3/TEL-AXL proliferation Inhibitory rate (%)) was 78.9%. The inhibition at 0.01 µM (BaF3/TEL-AXL cells; BaF3/TEL-AXL, 10 nM, two values per compound, read-out: BaF3/TEL-AXL proliferation Inhibitory rate (%)) was 79.8%, the inhibition at 0.1 µM (BaF3/TEL-AXL cells; BaF3/TEL-AXL, 100 nM, two values per compound, read-out: BaF3/TEL-AXL proliferation Inhibitory rate (%)) was 85.9% and the inhibition at 0.001 µM (BaF3/TEL-AXL cells; BaF3/TEL-AXL, concentration of 1 nM, read-out: inhibited the proliferation of BaF3/TEL-AXL cells) was > 70%. It also gave an inhibition at 0.05 µM (MER; the first time) of 99.4%, an inhibition at 0.05 µM (MER; the second time) of 99.5% and an inhibition at 0.05 µM (MLK2/MAP3K10; the first time) of 22.4%. The inhibition at 0.05 µM (MLK2/MAP3K10; the second time) was 23.9%, the IC50 [2] was 7.6 ± 0.3 nM and the inhibition at 0.001 µM ([2]; 1 nM, read-out: AXL activity Inhibitory rate(%)) was 20.7%. The inhibition at 0.01 µM ([2]; 10 nM, read-out: AXL activity Inhibitory rate(%)) was 61.2%, the inhibition at 0.1 µM ([2]; 100 nM, read-out: AXL activity Inhibitory rate(%)) was 80.7% and the inhibition at 0.05 µM (FYN; the first time) was 22.4%. The inhibition at 0.05 µM (FYN; the second time) was 27.7%.

— patent US12497394B2, “Fused-cyclic pyrazolone formamide compound and preparation method therefor, pharmaceutical composition and use thereof” (SHANGHAI INSTITUTE OF MATERIA MEDICA, CHINESE ACADEMY OF …, priority 2018, dated 2025)
